Reference: paper PMC12808100, “The non-catalytic DNA polymerase ε subunit is an NPF motif recognition protein” (Nature Communications, 2025)

What was measured:
POLE [1] = experiment: Titration nHU, Western blot, endogenous POLE in Jurkat extract; assay type: binding, human; conditions: titration nHU, Jurkat extract
Excerpt: To identify the partners of NPF motifs, we used the native holdup (nHU) assay that was recently developed by our team (Fig. 1B). The holdup approach has been extensively used to determine equilibrium dissociation constants of transient interactions mediated by PDZ and SH3 domains, 14-3-3, and human papilloma virus E6 proteins, and even nucleic acid-protein interactions[7],[30]–[35]. In the nHU experiments, a purified bait molecule, or a control compound, is immobilized on a resin at high concentration (typically 10 μM, or higher) and these resin stocks are subsequently mixed with dilute cell extracts. After a relatively long incubation, i.e., 2 h at 4 °C, the liquid phase is separated by centrifugation. This liquid phase contains the unbound prey molecules at near binding equilibrium that can be quantified using selective and quantitative analytical approaches, such as mass spectrometry. Therefore, proteins that interact with the bait molecule will appear to be depleted in the solvent phase and by measuring its relative concentration compared to the control nHU experiment, the degree of binding (θ) can be determined that can be converted to apparent steady-state dissociation constants, according to:1 θ=1−Ifree/Itot=Cbait/Cbait+Kapp where Itot and Ifree are the measured total and bait-depleted equilibrium mass spectrometry total ion intensities of prey proteins, Cbait is the bait molecule concentration and Kapp is the apparent dissociation constant.
Jurkat E6.1 cells (ECACC #88042803, RRID: CVCL_0367) were grown in RPMI (Gibco) medium completed with 10% FBS (Gibco BRL) and 40 μg/ml gentamicin (Gibco/Life Technology). To prepare total cell extracts, Jurkat cells were seeded onto T-175 flasks and grew until 3 × 10^6 cells/ml confluency. Cells were collected by 1000 g x 5 min centrifugation, washed with PBS and then lysed in ice-cold lysis buffer (Hepes-KOH pH 7.5 50 mM, NaCl 150 mM, Triton X-100 1%, cOmplete EDTA-free protease inhibitor cocktail 5x, TCEP 5 mM, glycerol 10%).
Cell suspensions were sonicated 4×20 sec with 1 sec long pulse on ice, then incubated rotating at 4 °C for 30 min. The lysates were centrifuged at 12,000 rpm 4 °C for 20 min and supernatant was kept. Total protein concentration was measured by standard Bradford method (Bio-Rad Protein Assay Dye Reagent #5000006) using a BSA calibration curve (MP Biomedicals #160069, diluted in lysis buffer) on a Bio-Rad SmartSpec 3000 spectrophotometer instrument.
Titration holdup experiments were carried out as described above using 25 μl saturated resins prepared. Briefly, we mixed control, or bait-saturated resins at various proportions by keeping the total resin amount and resin-analyte ratio constant during the experiment (for 25 μl we used 100 μl cell extract as analyte). In titration experiments with protein baits, bait concentration was determined as described above for the saturated resin stocks. Experiments were carried out at 4 °C for 2 h and recovered supernatants were subjected to western blot or dot blot analysis.
For Western blot, samples were mixed with 4x Laemmli Sample Buffer in 3:1 ratio. Equal amounts of samples were loaded on 6-10% acrylamide-gels (generally 16 μg). Transfer was done into PVDF membranes using a Trans-Blot Turbo Transfer System and Trans-Blot Turbo RTA Transfer Kit (BioRad, #1704275). For Dot blot, nHU samples were directly loaded on Nitrocellulose membranes using 48 Sample vacuum manifold (Cleaver Scientific) following the manufacturer’s recommendations.
After 1 h of blocking in 5% milk, membranes were incubated overnight at 4 °C with primary antibodies in 5% milk-TBS-Tween.

[2] = target: His6-avi-MBP-tagged POLE2; experiment: Single-point nHU-MS with recombinant His6-avi-MBP-POLE2 bait, Jurkat extract; assay type: binding, human; conditions: significant apparent affinity of endogenous prey protein for POLE2 bait; single-point nHU-MS; Figure S11
Excerpt: So far, our study only focused on a few hand-picked NPF motifs and studied them as short synthetic peptides. However, many other proteins may be present in the proteome that could bind to POLE2 and their putative NPF motifs are embedded in their natural structures that can greatly affect their binding properties. To investigate interactions between POLE2 and intact, full length proteins proteome-wide, we used nHU-MS experiments with recombinant His6-avi-MBP-tagged POLE2 as bait and purified His6-avi-MBP as a control. Even though we are aware that this recombinant POLE2 may bind to NPF motifs with a somewhat altered affinity, we assumed that this would affect all NPF motif-mediated interactions equally, allowing an unbiased affinity ranking of all identified partners. Single point nHU measurements were performed at 26 μM POLE2 concentration and the recovered supernatant was measured by label free proteomic MS measurements (Fig. 3A, Supplementary Figs. 8A, 9, Supplementary Data 1).
Single-point nHU experiments with protein baits were carried out nearly identically with two key modifications. First, the resin saturation step was carried out by mixing 50 μl streptavidin resin with 0.5−1 ml 50 μM biotinylated protein solution and the mixture was incubated for 1.5 h at 4 °C with constant agitation. Second, instead of using estimated bait concentrations, we measured it experimentally. An extra aliquot of resin stock was prepared alongside the nHU samples that were identically processed that were used to eluate the immobilized proteins under harsh conditions, in order to experimentally quantify the Cbait by using densitometry of Coomassie stained SDS-PAGE that included a protein calibration series. For this, 50 μl bait-saturated resin aliquots were mixed with 200 μl 4x Laemmli Sample Buffer (120 mM Tris-HCl pH 7, 8% SDS, 100 mM DTT, 32% glycerol, 0.004% bromphenol blue, 1% β-mercaptoethanol), instead of cell extract. After 15 min incubation at 95 °C, these samples were analyzed by SDS-PAGE using protein calibration standard, made from recombinant MBP. Densitometry was carried out after Coomassie staining on raw Tif images by using Fiji ImageJ 1.53c and experimental bait concentration were determined by adjusting for molecular weight differences between MBP and MBP-POLE2 constructs.
Samples were digested overnight at 37 °C.

POLE [3] = experiment: nHU-MS peptide bait, prey POLE; conditions: FigureS2 Volcano
EHD1 = target: T1, EHD1 (Homo sapiens, UniProt Q9H4M9); experiment: nHU-MS peptide bait, prey EHD1; conditions: FigureS2 Volcano; prey EHD1
T1 sequence (Q9H4M9 1-534): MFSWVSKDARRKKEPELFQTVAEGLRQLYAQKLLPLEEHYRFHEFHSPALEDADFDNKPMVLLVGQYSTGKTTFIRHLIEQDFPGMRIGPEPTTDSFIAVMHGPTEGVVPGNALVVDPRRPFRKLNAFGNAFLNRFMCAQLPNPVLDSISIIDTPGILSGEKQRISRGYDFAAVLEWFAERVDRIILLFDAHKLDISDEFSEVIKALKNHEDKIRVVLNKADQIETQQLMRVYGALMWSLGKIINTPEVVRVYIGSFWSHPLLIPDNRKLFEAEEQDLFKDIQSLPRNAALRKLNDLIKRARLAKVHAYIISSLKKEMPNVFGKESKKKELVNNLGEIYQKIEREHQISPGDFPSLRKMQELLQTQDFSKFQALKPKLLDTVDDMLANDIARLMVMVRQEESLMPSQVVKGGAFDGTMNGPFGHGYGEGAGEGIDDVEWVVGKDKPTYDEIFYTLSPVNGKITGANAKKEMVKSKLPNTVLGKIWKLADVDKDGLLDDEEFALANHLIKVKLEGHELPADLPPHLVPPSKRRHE

TSETSK [SYNJ1]
weaker POLE binding than the DONSON motif (POLE [1]): ~ 6 fold
pKapp_sign [2]: 4.4418
log2FC (POLE [3]): -0.4452
-log10P (EHD1): 14.1958
log2FC (EHD1): -0.4973
